Patent US20210000750A1, “ENGINEERED NANOVESICLES AS CHECKPOINT BLOCKADE FOR CANCER IMMUNOTHERAPY” (NORTH CAROLINA STATE UNIVERSITY, priority 2018, published 2021)

Experiments:
B16F10 melanoma tumor = assay: In vivo anti-tumor efficacy study of NVs; set-up: species or system C57BL/6 mice; conditions: seven-group study, every 3 days for five cycles
Procedure: Female C57BL/6 mice were purchased from Jackson Lab (USA). All mouse studies were performed in the context of an animal protocol approved by the Institutional Animal Care and Use Committee at North Carolina State University and University of North Carolina at Chapel Hill. Mice were weighed and randomly divided into different groups. 5 d after 1×10^6 B16F10 tumor cells subcutaneously transplanted into the abdomen of mice (the tumor reaches 40-50 mm^3), PBS, Free nanovesicles (25 mg/kg), PD-1 nanovesicles (25 mg/kg), 1-MT (2.5 mg/kg), 1-MT loaded PD-1 nanovesicles (25 mg/kg), anyi-PD-L1 antibody (2 mg/kg) were administered into mice by tail-vein injection. Tumor incidences were monitored by physical examination and sizes were also measured by digital caliper over time. Tumors were measured by using a vernier calipers and the volume (V) was calculated to be V=d^2×D/2, where d is the shortest and the D is longest diameter of the tumor in mm respectively. To assess potential toxicities, mice were monitored daily for weight loss. For survival assays, the experiments were performed separately.
Bioluminescence images were collected with a Xenogen IVIS Spectrum Imaging System. Living Image software (Xenogen) was used to acquire the data 10 min after intraperitoneal injection of d-luciferin (Pierce) in DPBS (15 mg/mL) into animals (10 μL/g of body weight).

[1] = test system: B16F10 melanoma residual tumor; assay: In vivo anti-tumor efficacy, incomplete-tumor-resection model; set-up: species or system C57BL/6 mice; conditions: five-group cyclophosphamide study
Text: (§1) B16F10 luciferase-tagged B16F10 (1×10^6) melanoma tumor cells were transplanted into the right flank of C57BL/6 mice. Eight days after tumor inoculation, the tumors volume reach around ˜150 mm^3. These tumors were then resected, leaving about 15 mm^3 (10%) tumor volume to mimic the residual tumors in the surgical bed. Briefly, animals were anesthetized in an induction chamber using isoflurane (up to 5% for induction; 1-3% for maintenance), and anaesthesia was maintained via a nose cone. The tumor area was clipped and aseptically prepped. Sterile instruments were used to remove approximately 90% of the tumor. The wound was closed using an Autoclip wound closing system. The mice were randomly divided into several groups of eight mice (n=8) as indicated. The mice firstly were intravenously injected with different treatment formulations: PBS, free platelets […], PD-1 platelets (˜2×10^8), cyclophosphamide (20 mg/kg), cyclophosphamide loaded free platelets (˜2×10^8) or cyclophosphamide loaded PD-1 platelets (˜2×10^8). Immediately after the injection, the surgery was carried out within 10 min one mouse by one mouse. The tumor burden was monitored via the bioluminescence of the cancer cells.

CD8^+ TILs = type: in vivo, C57BL/6 mice; conditions: five-group cyclophosphamide study
Procedure: Tumors were dissected from the mice and snap frozen in optimal cutting medium (O.C.T.). Several micrometer sections were cut using a cryotome and mounted on slides. The frozen tumor sections were incubated in PBS for 15 min to remove the embedding medium. The specimens were blocked with the buffer containing 3% BSA. Subsequently, the specimens incubated with CD4 and CD8 primary antibodies (1:50 in 3% BSA) overnight and then washed three times with PBS for 5 min each. After that the specimens were incubated with TRITC secondary antibody (KPL) diluted in 3% BSA at room temperature in the dark for 1 h. Finally, the nucleus was stained with DAPI, and the tissue was washed three times with PBS for 5 min each. Confocal microscopy was performed on a FLUO-VIEW laser scanning confocal microscope […] in sequential scanning mode using a 40×objective.

Tregs = type: in vivo, C57BL/6 mice; conditions: five-group cyclophosphamide study
[2] = five-group cyclophosphamide study
Text: as §1

Structure (SMILES) | suppression of tumor growth (B16F10 melanoma tumor) | tumor progression [1] | frequency of Ki67+ T cells (CD8^+ TILs) | Tregs within the tumor (Tregs) | hair growth and weight loss [2]
Cn1cc(C[C@H](N)C(=O)O)c2ccccc21 [1-MT, 1-methyl-tryptophan] | limited suppression of tumor growth |  |  |  | 
O=P1(N(CCCl)CCCl)NCCCO1 (centres unmarked) [cyclophosphamide] |  | limited results | increased the frequency | selectively depleted Tregs | delayed hair growth in the abdomen and slighted weight loss
